PubChem BioAssay (NCI)
Values joined by “and” are separate entries in the source; they are usually repeats but may differ in a detail not shown here. Equal entries are not always repeated.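 Compound exposure: 48 hours, 5 concentrations, 96-well plates. TGI is the concentration that stops growth completely.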

Key:
Assay in all cases: DTP human tumour cell line panel, 48 h
[1] = test system: KM12 colon
[2] = test system: HT29 colon
[3] = test system: BT-549 breast
[4] = test system: SK-MEL-5 melanoma
[5] = test system: SK-OV-3 ovarian
[6] = test system: MALME-3M melanoma
[7] = test system: IGROV1 ovarian

Structure (SMILES)	TGI [1]	TGI [2]	TGI [3] [µM]	TGI [4]	TGI [5]	TGI [6]	TGI [7]
Nc1ncnc2c1ncn2-c1ccc([N+](=O)[O-])cn1	> 100 µM	> 100 µM	> 100	> 100 µM	> 100 µM	–	–
OC(Cc1ccc2ccccc2n1)(C(F)(F)Cl)C(F)(F)Cl	> 10 µM	> 10 µM	> 10	> 10 µM	> 10 µM	> 10 µM	> 10 µM
CC(C)CC(NP(=O)(O)OC1OC(C)C(O)C(O)C1O)C(=O)NC(Cc1c[nH]c2ccccc12)C(=O)O (stereo unspecified)	> 100 µM	> 100 µM	> 100	> 100 µM	> 100 µM	> 100 µM	> 100 µM
NS(=O)(=O)c1nnc(NC(=O)c2cccc([N+](=O)[O-])c2)s1	> 100 µM	–	> 100	> 100 µM	> 100 µM	> 100 µM	–
CC(=O)C1(C)CC(C#N)(C#N)C(C#N)=C1N (stereo unspecified)	> 100 µM	> 100 µM	> 100	> 100 µM	> 100 µM	> 100 µM	> 100 µM
COc1cc(C(C[N+](=O)[O-])SC(C)=O)ccc1OCc1ccccc1 (stereo unspecified)	14 µM	> 20.9 µM	–	21.9 µM	29.6 µM	17.5 µM	7.36 µM
COC1CC(C)([N+](=O)[O-])C(O)C(C)O1 (stereo unspecified)	> 100 µM	> 100 µM	> 100	> 100 µM	> 100 µM	> 100 µM	> 100 µM
CCOC(=O)c1nc2ccccc2nc1Nc1ccc(OC)cc1	> 100 µM	> 100 µM	73.6	> 100 µM	–	> 100 µM	> 100 µM
CC(C)CCC[C@@H](C)C1CCC2[C@@H]3CCC4C[C@@H](NS(C)(=O)=O)CC[C@]4(C)C3CC[C@@]21C (stereo partly specified)	> 100 µM	> 100 µM	> 100	> 100 µM	> 100 µM	> 100 µM	> 100 µM
O=c1cc(NNc2ccccc2F)[nH]c(=O)[nH]1	28.7 µM	34.9 µM	31.8	49.5 µM	60.8 µM	33.3 µM	30.4 µM
CCCCC(/C=C\COC1CCCCO1)=C/C(=O)OCC (stereo unspecified)	> 100 µM	> 100 µM	> 100	> 100 µM	> 100 µM	> 100 µM	> 100 µM
CCc1[nH]c(=O)c2oc3cc4ccccc4cc3c2c1C(=O)O	> 10 µM	> 10 µM	> 10	–	–	> 10 µM	> 10 µM
NC(=O)NNCc1c(-c2ccccc2)no[n+]1[O-]	> 100 µM	> 100 µM	> 100	> 100 µM	> 100 µM	> 100 µM	> 100 µM
c1ccc(-c2c3c(nc4c2CC[C@H]4NC2=NCCN2)[C@@H](NC2=NCCN2)CC3)cc1	> 100 µM	> 100 µM	> 100	> 100 µM	> 100 µM	> 100 µM	> 100 µM
COc1cc(C2c3[nH]c4ccccc4c3[C@@H](Nc3ccc(C#N)cc3)[C@H]3COC(=O)N23)cc(OC)c1O (stereo partly specified)	–	> 10 µM	0.796	0.321 µM	1.04 µM	1.2 µM	3 µM
[N-]=[N+]=Nc1ccc2c(c1)Sc1ccccc1N2CCCCN1CCN(Cc2ccc(C(=O)c3ccc(CSCC(N)C(=O)O)cc3)cc2)CC1 (stereo unspecified)	7.91 µM	30.7 µM	40.1	34.9 µM	> 100 µM	–	30.9 µM
CCCCOCOc1ccccc1P1(=O)COc2ccccc2OC1	> 100 µM	> 100 µM	> 100	> 100 µM	> 100 µM	> 100 µM	> 100 µM
Cc1cc(S(=O)(=O)Nc2n[nH]c(Nc3ccc4ccccc4c3)n2)c(S)cc1Cl	95 µM	> 100 µM	> 100	> 100 µM	> 100 µM	> 100 µM	> 100 µM
CC(=O)Oc1c(OC(C)C)c(C)c(O[Si](C(C)C)(C(C)C)C(C)C)c2[nH]c3ccccc3c12	> 100 µM	> 100 µM	> 100	> 100 µM	> 100 µM	–	> 100 µM
C[C@@H]1CCC2C(C)(C)C(/C=C\C=O)C3(C)OC213 (stereo partly specified)	> 100 µM	62 µM	> 100	53.2 µM	> 100 µM	72.1 µM	> 100 µM
CCCC(C)NC(=O)c1ccc(N(C)Cc2cnc3nc(N)nc(N)c3n2)cc1 (stereo unspecified)	> 100 µM	58.6 µM	41.6	37.4 µM	> 100 µM	39.3 µM	> 100 µM
NC(=O)C(=CNC(=S)Nc1ccc(S(=O)(=O)Nc2ccccn2)cc1)C(N)=O	> 100 µM	> 100 µM	> 100	> 100 µM	> 100 µM	–	> 100 µM
CCOC(=O)c1nc2ccccc2nc1Oc1ccc(C#N)cc1	> 100 µM	> 100 µM	> 100	> 100 µM	> 100 µM	> 100 µM	> 100 µM
Oc1cnc2c(O)cccc2c1	> 100 µM	> 100 µM	–	–	> 100 µM	> 100 µM	> 100 µM
CCOC(=O)[C@@H]1ON2O[C@H](OC3CCCCC3c3ccccc3)C[C@H]3OC(=O)[C@@H]1C32 (stereo partly specified)	> 100 µM	> 100 µM	–	> 100 µM	> 100 µM	–	> 100 µM
CC1OC(OC2C(OC(=O)[C@]34CCC(C)(C)C[C@H]3C3=CC[C@@H]5[C@@]6(C)CC[C@H](OC7OC(CO)C(O)C(O)C7OC7OC(CO)C(O)C(O)C7O)C(C)(C)[C@@H]6CC[C@@]5(C)[C@]3(C)CC4)OCC(O)C2O)C(O)C(O)C1OC1OCC(O)C(OC2OCC(O)C(O)C2O)C1O (stereo partly specified)	11.8 µM and 12.5 µM	10.8 µM and 9.01 µM	10.8	8.11 µM and 10.3 µM	25.6 µM and 26.5 µM	6.6 µM and 7.27 µM	26.4 µM and 24.3 µM
CSC1=C(C(=O)Nc2ccc(C)cc2)C(N)=NC1=O	> 100 µM	> 100 µM	–	> 100 µM	> 100 µM	–	> 100 µM
